Results from ChEMBL document CHEMBL5321219, “Selective degradation of cellular BRD3 and BRD4-L promoted by PROTAC molecules in six cancer cell lines” (Eur J Med Chem, 2023).
pIC50: −log10 of the molar value. Activity calls are given as the source filed them. No cut-off for these calls is given here.

Tests used:
[1] = biological target: T1, Protein cereblon/Bromodomain-containing protein 4 (Homo sapiens) (UniProt O60885+Q96SW2); assay: PROTAC activity at CRBN/BRD4-L in human MM1.S cells assessed as induction of protein degradation at 30 nM measured after 3 to 6 hrs by Western blot analysis; type: cell-based; details: time 3-6 hrs
[2] = biological target: T1, Protein cereblon/Bromodomain-containing protein 4 (Homo sapiens); assay: PROTAC activity at CRBN/BRD4-L in human MCF7 cells assessed as induction of protein degradation at 30 nM measured after 3 to 6 hrs by Western blot analysis; type: cell-based; details: time 3-6 hrs
[3] = biological target: T1, Protein cereblon/Bromodomain-containing protein 4 (Homo sapiens); assay: PROTAC activity at CRBN/BRD4-L in human HGC-27 cells assessed as induction of protein degradation at 30 nM measured after 8 to 24 hrs by Western blot analysis; type: cell-based; details: time 8-24 hrs
[4] = biological target: T2, Protein cereblon/Bromodomain-containing protein 3 (Homo sapiens) (UniProt Q15059+Q96SW2); assay: PROTAC activity at CRBN/BRD3 in human MCF7 cells assessed as induction of protein degradation measured after 24 hrs by Western blot analysis; type: cell-based; details: dose 1-300 nM
[5] = biological target: T2, Protein cereblon/Bromodomain-containing protein 3 (Homo sapiens); assay: PROTAC activity at CRBN/BRD3 in human A549 cells assessed as induction of protein degradation measured after 24 hrs by Western blot analysis; type: cell-based; details: dose 3-1000 nM
[6] = biological target: T1, Protein cereblon/Bromodomain-containing protein 4 (Homo sapiens); assay: PROTAC activity at CRBN/BRD4-L in human A549 cells assessed as induction of protein degradation measured after 24 hrs by Western blot analysis; type: cell-based; details: dose 3-1000 nM
[7] = biological target: T1, Protein cereblon/Bromodomain-containing protein 4 (Homo sapiens); assay: PROTAC activity at CRBN/BRD4-S in human A549 cells assessed as induction of protein degradation at 3 to 1000 nM measured after 24 hrs by Western blot analysis; type: cell-based; details: dose 3-1000 nM
A549 = assay: Antiproliferative activity against human A549 cells assessed as cell growth inhibition measured after 4 days by CCK-8 assay; type: functional, cell-based; details: A549, 96 h
MM1.S [8] = assay: Downregulation of BRD4 expression in human MM1.S cells by proteomic analysis; type: functional, cell-based
[9] = biological target: T2, Protein cereblon/Bromodomain-containing protein 3 (Homo sapiens); assay: PROTAC activity at CRBN/BRD3 in human MM1.S cells assessed as induction of protein degradation at 30 nM pretreated with (6R)-N-(4-chlorophenyl)-1-methyl-8-(1-methyl-1H-pyrazol-4-yl)-5,6-dihydro-4H-benzo[f][1,2,4]triazolo[4,3-a]azepin-6-amine for 2 hrs followed by compound addition and measured after 4 hrs by Western blot analysis; type: cell-based
[10] = biological target: T1, Protein cereblon/Bromodomain-containing protein 4 (Homo sapiens); assay: PROTAC activity at CRBN/BRD4-L in human MM1.S cells assessed as induction of protein degradation at 30 nM by Western blot analysis; type: cell-based; details: TDE = time-dependent effect
MM1.S [11] = assay: Induction of cell cycle arrest in human MM1.S cells assessed as accumulation of cells at S phase at 30 nM incubated for 24 hrs by flow cytometry analysis (reference value: 22.37%); type: functional
MM1.S [12] = assay: Induction of cell cycle arrest in human MM1.S cells assessed as accumulation of cells at G1 phase at 300 nM incubated for 24 hrs by flow cytometry analysis (reference value: 56.32%); type: functional
MM1.S [13] = assay: Induction of cell cycle arrest in human MM1.S cells assessed as accumulation of cells at S phase at 300 nM incubated for 24 hrs by flow cytometry analysis (reference value: 22.37%); type: functional

T1 sequence (Q96SW2 whole entry, looked up, other chains not shown): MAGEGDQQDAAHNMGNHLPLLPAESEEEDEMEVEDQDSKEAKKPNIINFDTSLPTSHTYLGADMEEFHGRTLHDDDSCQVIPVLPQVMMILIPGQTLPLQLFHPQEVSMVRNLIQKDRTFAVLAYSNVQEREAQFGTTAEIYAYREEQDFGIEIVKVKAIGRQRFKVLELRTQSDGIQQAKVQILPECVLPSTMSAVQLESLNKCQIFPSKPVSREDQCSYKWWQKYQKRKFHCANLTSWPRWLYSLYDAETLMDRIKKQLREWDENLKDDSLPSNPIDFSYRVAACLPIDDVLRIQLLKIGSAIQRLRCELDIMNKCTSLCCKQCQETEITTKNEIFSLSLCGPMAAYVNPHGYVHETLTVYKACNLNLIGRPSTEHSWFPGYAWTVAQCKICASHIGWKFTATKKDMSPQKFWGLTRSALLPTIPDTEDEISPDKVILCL
T2 sequence (Q15059 2-726 limits assumed): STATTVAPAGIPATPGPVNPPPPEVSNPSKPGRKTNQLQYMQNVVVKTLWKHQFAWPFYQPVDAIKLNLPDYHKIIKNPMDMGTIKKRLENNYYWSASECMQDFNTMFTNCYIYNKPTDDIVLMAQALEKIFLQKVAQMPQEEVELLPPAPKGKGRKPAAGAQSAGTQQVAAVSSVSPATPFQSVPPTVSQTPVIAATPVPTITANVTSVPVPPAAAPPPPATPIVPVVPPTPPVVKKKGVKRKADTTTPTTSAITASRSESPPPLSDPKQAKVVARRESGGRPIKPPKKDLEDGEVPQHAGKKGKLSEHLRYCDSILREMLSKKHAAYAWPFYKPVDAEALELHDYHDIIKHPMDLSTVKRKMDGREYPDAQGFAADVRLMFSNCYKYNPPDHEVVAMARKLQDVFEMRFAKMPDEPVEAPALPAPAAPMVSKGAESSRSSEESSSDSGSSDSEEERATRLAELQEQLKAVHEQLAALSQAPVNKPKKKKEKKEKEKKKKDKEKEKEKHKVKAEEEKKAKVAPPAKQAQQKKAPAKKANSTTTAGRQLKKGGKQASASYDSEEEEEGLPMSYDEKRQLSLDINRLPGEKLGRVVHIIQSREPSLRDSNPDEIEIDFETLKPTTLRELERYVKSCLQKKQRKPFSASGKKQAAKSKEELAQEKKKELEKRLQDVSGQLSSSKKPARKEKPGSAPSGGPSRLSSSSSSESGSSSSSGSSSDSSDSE
T2 sequence (Q96SW2 whole entry partner): as the sequence (Q96SW2 whole entry, looked up, other chains not shown) above

Activity [1]: Active
Activity [2]: Active
Activity [3]: Active
Activity [4]: Dose-Dependent Effect
Activity [5]: Dose-Dependent Effect
Activity [6]: Dose-Dependent Effect
Activity [7]: inactive
pIC50 (A549): 4.85
Activity [9]: inactive
Activity [10]: Tde
Compound: Cc1nnc2n1-c1ccc(-c3ccc(CNCCCCc4cccc5c4CN(C4CCC(=O)NC4=O)C5=O)cc3)cc1C(Nc1ccc(Cl)cc1)CC2 (centres undefined)
Activity (MM1.S [8]): Active
Activity (MM1.S [11]): 15.21%
Activity (MM1.S [12]): 68.85%
Activity (MM1.S [13]): 13.79%
